Measured values reported in ChEMBL document CHEMBL3734705, “Synthesis and in vitro cytotoxicity of novel C-12 substituted-14-deoxy-andrographolide derivatives as potent anti-cancer agents” (2015).

Test system: not listed separately
Experiment: Cytotoxicity against human UO31 cells assessed as growth level at 10 uM after 48 hrs by SRB assay
Format: functional, UO-31
Details: not given

Row | Structure (SMILES) | Activity
1 | C=C1CC[C@@H]2[C@](C)(COC(C)=O)[C@H](OC(C)=O)CC[C@@]2(C)[C@@H]1CC(NCc1ccc(F)cc1)C1=CCOC1=O (mixture of isomers) | 31.26%

Test system: not listed separately
Experiment: Cytotoxicity against human SF295 cells assessed as growth inhibition at 10 uM after 48 hrs by SRB assay
Format: functional
Details: SF-295, 48 h, read-out: GI

Row | Structure (SMILES) | inhibition of growth at 10 µM
2 | C=C1CC[C@@H]2[C@](C)(COC(C)=O)[C@H](OC(C)=O)CC[C@@]2(C)[C@@H]1CC(NCc1ccc(F)cc1)C1=CCOC1=O (mixture of isomers) | 3.87%

Test system: not listed separately
Experiment: Cytotoxicity against human HOP92 cells assessed as growth level at 10 uM after 48 hrs by SRB assay
Format: functional, HOP-92
Details: not given

Row | Structure (SMILES) | Activity
3 | C=C1CC[C@@H]2[C@](C)(COC(C)=O)[C@H](OC(C)=O)CC[C@@]2(C)[C@@H]1CC(NCc1ccc(F)cc1)C1=CCOC1=O (mixture of isomers) | 18.82%

Test system: NCI-H226
Experiment: Cytotoxicity against human NCI-H226 cells assessed as growth level at 10 uM after 48 hrs by SRB assay
Format: functional
Details: not given

Row | Structure (SMILES) | Activity
4 | C=C1CC[C@@H]2[C@](C)(COC(C)=O)[C@H](OC(C)=O)CC[C@@]2(C)[C@@H]1CC(NCc1ccc(F)cc1)C1=CCOC1=O (mixture of isomers) | 40.13%

Test system: SK-MEL-28
Experiment: Cytotoxicity against human SK-MEL-28 cells assessed as growth level at 10 uM after 48 hrs by SRB assay
Format: functional
Details: not given

Row | Structure (SMILES) | Activity
5 | C=C1CC[C@@H]2[C@](C)(COC(C)=O)[C@H](OC(C)=O)CC[C@@]2(C)[C@@H]1CC(NCc1ccc(F)cc1)C1=CCOC1=O (mixture of isomers) | 77.79%

Test system: not listed separately
Experiment: Cytotoxicity against human UO31 cells assessed as growth inhibition at 10 uM after 48 hrs by SRB assay
Format: functional
Details: UO-31, 48 h, read-out: GI

Row | Structure (SMILES) | inhibition of growth at 10 µM
6 | C=C1CC[C@@H]2[C@](C)(COC(C)=O)[C@H](OC(C)=O)CC[C@@]2(C)[C@@H]1CC(NCc1ccc(F)cc1)C1=CCOC1=O (mixture of isomers) | 68.7%

Test system: not listed separately
Experiment: Cytotoxicity against human UACC62 cells assessed as growth inhibition at 10 uM after 48 hrs by SRB assay
Format: functional
Details: UACC-62, 48 h, read-out: GI

Row | Structure (SMILES) | inhibition of growth at 10 µM
7 | C=C1CC[C@@H]2[C@](C)(COC(C)=O)[C@H](OC(C)=O)CC[C@@]2(C)[C@@H]1CC(NCc1ccc(F)cc1)C1=CCOC1=O (mixture of isomers) | 67.8%

Test system: CCRF-CEM
Experiment: Cytotoxicity against human CCRF-CEM cells assessed as growth inhibition at 10 uM after 48 hrs by SRB assay
Format: functional
Details: read-out: GI

Row | Structure (SMILES) | inhibition of growth at 10 µM
8 | C=C1CC[C@@H]2[C@](C)(COC(C)=O)[C@H](OC(C)=O)CC[C@@]2(C)[C@@H]1CC(NCc1ccc(F)cc1)C1=CCOC1=O (mixture of isomers) | 90.8%

Test system: HT-29
Experiment: Cytotoxicity against human HT-29 cells assessed as growth inhibition at 10 uM after 48 hrs by SRB assay
Format: functional
Details: HT-29, 48 h, read-out: GI

Row | Structure (SMILES) | inhibition of growth at 10 µM
9 | C=C1CC[C@@H]2[C@](C)(COC(C)=O)[C@H](OC(C)=O)CC[C@@]2(C)[C@@H]1CC(NCc1ccc(F)cc1)C1=CCOC1=O (mixture of isomers) | 78.7%

Test system: not listed separately
Experiment: Cytotoxicity against human PC3 cells assessed as growth inhibition at 10 uM after 48 hrs by SRB assay
Format: functional
Details: PC-3, 48 h, read-out: GI

Row | Structure (SMILES) | inhibition of growth at 10 µM
10 | C=C1CC[C@@H]2[C@](C)(COC(C)=O)[C@H](OC(C)=O)CC[C@@]2(C)[C@@H]1CC(NCc1ccc(F)cc1)C1=CCOC1=O (mixture of isomers) | 79.2%

Test system: ACHN
Experiment: Cytotoxicity against human ACHN cells assessed as growth inhibition at 10 uM after 48 hrs by SRB assay
Format: functional
Details: read-out: GI

Row | Structure (SMILES) | inhibition of growth at 10 µM
11 | C=C1CC[C@@H]2[C@](C)(COC(C)=O)[C@H](OC(C)=O)CC[C@@]2(C)[C@@H]1CC(NCc1ccc(F)cc1)C1=CCOC1=O (mixture of isomers) | 49.1%

Test system: not listed separately
Experiment: Cytotoxicity against human UACC62 cells assessed as growth level at 10 uM after 48 hrs by SRB assay
Format: functional, UACC-62
Details: not given

Row | Structure (SMILES) | Activity
12 | C=C1CC[C@@H]2[C@](C)(COC(C)=O)[C@H](OC(C)=O)CC[C@@]2(C)[C@@H]1CC(NCc1ccc(F)cc1)C1=CCOC1=O (mixture of isomers) | 32.2%

Test system: not listed separately
Experiment: Cytotoxicity against human COLO205 cells assessed as growth level at 10 uM after 48 hrs by SRB assay
Format: functional, COLO 205
Details: not given

Row | Structure (SMILES) | Activity
13 | C=C1CC[C@@H]2[C@](C)(COC(C)=O)[C@H](OC(C)=O)CC[C@@]2(C)[C@@H]1CC(NCc1ccc(F)cc1)C1=CCOC1=O (mixture of isomers) | 42.15%

Test system: not listed separately
Experiment: Cytotoxicity against human NCI-ADR-RES cells assessed as growth inhibition at 10 uM after 48 hrs by SRB assay
Format: functional
Details: read-out: GI

Row | Structure (SMILES) | inhibition of growth at 10 µM
14 | C=C1CC[C@@H]2[C@](C)(COC(C)=O)[C@H](OC(C)=O)CC[C@@]2(C)[C@@H]1CC(NCc1ccc(F)cc1)C1=CCOC1=O (mixture of isomers) | 71.8%

Test system: M14
Experiment: Cytotoxicity against human M14 cells assessed as growth inhibition at 10 uM after 48 hrs by SRB assay
Format: functional
Details: M14, 48 h, read-out: GI

Row | Structure (SMILES) | inhibition of growth at 10 µM
15 | C=C1CC[C@@H]2[C@](C)(COC(C)=O)[C@H](OC(C)=O)CC[C@@]2(C)[C@@H]1CC(NCc1ccc(F)cc1)C1=CCOC1=O (mixture of isomers) | 62.7%

Test system: MCF7
Experiment: Cytotoxicity against human MCF7 cells assessed as growth level at 10 uM after 48 hrs by SRB assay
Format: functional
Details: not given

Row | Structure (SMILES) | Activity
16 | C=C1CC[C@@H]2[C@](C)(COC(C)=O)[C@H](OC(C)=O)CC[C@@]2(C)[C@@H]1CC(NCc1ccc(F)cc1)C1=CCOC1=O (mixture of isomers) | 16.58%

Test system: A498
Experiment: Cytotoxicity against human A498 cells assessed as growth inhibition at 10 uM after 48 hrs by SRB assay
Format: functional
Details: A498, 48 h, read-out: GI

Row | Structure (SMILES) | inhibition of growth at 10 µM
17 | C=C1CC[C@@H]2[C@](C)(COC(C)=O)[C@H](OC(C)=O)CC[C@@]2(C)[C@@H]1CC(NCc1ccc(F)cc1)C1=CCOC1=O (mixture of isomers) | 48.3%

Test system: M14
Experiment: Cytotoxicity against human M14 cells assessed as growth level at 10 uM after 48 hrs by SRB assay
Format: functional
Details: not given

Row | Structure (SMILES) | Activity
18 | C=C1CC[C@@H]2[C@](C)(COC(C)=O)[C@H](OC(C)=O)CC[C@@]2(C)[C@@H]1CC(NCc1ccc(F)cc1)C1=CCOC1=O (mixture of isomers) | 37.3%

Test system: SN12C
Experiment: Cytotoxicity against human SN12C cells assessed as growth inhibition at 10 uM after 48 hrs by SRB assay
Format: functional
Details: read-out: GI

Row | Structure (SMILES) | inhibition of growth at 10 µM
19 | C=C1CC[C@@H]2[C@](C)(COC(C)=O)[C@H](OC(C)=O)CC[C@@]2(C)[C@@H]1CC(NCc1ccc(F)cc1)C1=CCOC1=O (mixture of isomers) | 53.8%

Test system: not listed separately
Experiment: Cytotoxicity against human SF268 cells assessed as growth inhibition at 10 uM after 48 hrs by SRB assay
Format: functional
Details: SF-268, 48 h, read-out: GI

Row | Structure (SMILES) | inhibition of growth at 10 µM
20 | C=C1CC[C@@H]2[C@](C)(COC(C)=O)[C@H](OC(C)=O)CC[C@@]2(C)[C@@H]1CC(NCc1ccc(F)cc1)C1=CCOC1=O (mixture of isomers) | 37.4%

Test system: not listed separately
Experiment: Cytotoxicity against human BT549 cells assessed as growth level at 10 uM after 48 hrs by SRB assay
Format: functional, BT-549
Details: not given

Row | Structure (SMILES) | Activity
21 | C=C1CC[C@@H]2[C@](C)(COC(C)=O)[C@H](OC(C)=O)CC[C@@]2(C)[C@@H]1CC(NCc1ccc(F)cc1)C1=CCOC1=O (mixture of isomers) | 28.73%

Test system: not listed separately
Experiment: Cytotoxicity against human OVCAR4 cells assessed as growth inhibition at 10 uM after 48 hrs by SRB assay
Format: functional
Details: OVCAR-4, 48 h, read-out: GI

Row | Structure (SMILES) | inhibition of growth at 10 µM
22 | C=C1CC[C@@H]2[C@](C)(COC(C)=O)[C@H](OC(C)=O)CC[C@@]2(C)[C@@H]1CC(NCc1ccc(F)cc1)C1=CCOC1=O (mixture of isomers) | 69.1%

Test system: NCI-H322M
Experiment: Cytotoxicity against human NCI-H322M cells assessed as growth level at 10 uM after 48 hrs by SRB assay
Format: functional
Details: not given

Row | Structure (SMILES) | Activity
23 | C=C1CC[C@@H]2[C@](C)(COC(C)=O)[C@H](OC(C)=O)CC[C@@]2(C)[C@@H]1CC(NCc1ccc(F)cc1)C1=CCOC1=O (mixture of isomers) | 72.54%

Test system: not listed separately
Experiment: Cytotoxicity against human TK10 cells assessed as growth inhibition at 10 uM after 48 hrs by SRB assay
Format: functional
Details: TK-10, 48 h, read-out: GI

Row | Structure (SMILES) | inhibition of growth at 10 µM
24 | C=C1CC[C@@H]2[C@](C)(COC(C)=O)[C@H](OC(C)=O)CC[C@@]2(C)[C@@H]1CC(NCc1ccc(F)cc1)C1=CCOC1=O (mixture of isomers) | 33.4%

Test system: A549
Experiment: Cytotoxicity against human A549 cells assessed as growth inhibition at 10 uM after 48 hrs by SRB assay
Format: functional
Details: A549, 48 h, read-out: GI

Row | Structure (SMILES) | inhibition of growth at 10 µM
25 | C=C1CC[C@@H]2[C@](C)(COC(C)=O)[C@H](OC(C)=O)CC[C@@]2(C)[C@@H]1CC(NCc1ccc(F)cc1)C1=CCOC1=O (mixture of isomers) | 42.1%

Test system: not listed separately
Experiment: Cytotoxicity against human RPMI8226 cells assessed as growth inhibition at 10 uM after 48 hrs by SRB assay
Format: functional
Details: RPMI-8226, 48 h, read-out: GI

Row | Structure (SMILES) | inhibition of growth at 10 µM
26 | C=C1CC[C@@H]2[C@](C)(COC(C)=O)[C@H](OC(C)=O)CC[C@@]2(C)[C@@H]1CC(NCc1ccc(F)cc1)C1=CCOC1=O (mixture of isomers) | 98.7%

Test system: NCI-H322M
Experiment: Cytotoxicity against human NCI-H322M cells assessed as growth inhibition at 10 uM after 48 hrs by SRB assay
Format: functional
Details: read-out: GI

Row | Structure (SMILES) | inhibition of growth at 10 µM
27 | C=C1CC[C@@H]2[C@](C)(COC(C)=O)[C@H](OC(C)=O)CC[C@@]2(C)[C@@H]1CC(NCc1ccc(F)cc1)C1=CCOC1=O (mixture of isomers) | 27.5%
